Consider three molecules from patent publication US20260232668A1 (Kadmon Corporation, LLC, priority 2023, published 2026).

The structures appear in SMILES notation. Entries after “also recorded” stand apart in the source; their conditions may differ. Where two headings read alike, the source gives them in different places.

For data set [1] the following is noted: cited from earlier work.
In data set [2] the test system is murine model of sclerodermatous chronic graft-versus-host disease (GVHD). The conditions noted are these: for survival: PO Days 21-55: belumosudil 125 mg/kg Days 21-32 then 100 mg/kg, ibrutinib 20 mg/kg, rilzabrutinib 40 mg/kg BID, vehicle 91.7%.
The test system of data set [3] is B cells (CD20+) in human whole blood. The experiment in a line: anti-CD79b-mediated B-cell activation in human whole blood (CD69 on CD20+ B cells, flow cytometry). The class given is cell-based. The conditions noted are these: anti-CD79b stimulation. (In general: Flow cytometry measures light scatter and fluorescence of single cells or particles in a stream.)
Method: Flow cytometric analyses were conducted using BD LSRFortessa™ Cell Analyzer (BD Biosciences) and the data analyzed by FlowJo (BD Biosciences). B-cell activation is determined by an increase in surface expression of activation marker CD69 on B cells (CD20+) following anti-CD79b stimulation. The experiment was conducted in duplicate.
In data set [4] the test system is sclerodermatous chronic GVHD model. The experiment in a line: Example 2: mouse model of sclerodermatous chronic GVHD, single agents. The class given is in vivo.
Method: Animals were not replaced during the course of the study. Mice were handled in accordance with standard conventional procedures. Animals were acclimatized for a minimum of 3 days prior to study commencement. […] The study was performed in animal rooms provided with filtered air at a temperature of 70±5° F. and 50% 20% relative humidity and an automatic timer for a light/dark cycle of 12 hours on and 12 hours off with no twilight.
On Day 0, a combination of bone marrow cells and splenocytes were transferred from donor LP/J mice to the recipients, as indicated in Table 2. […] The BM cells were isolated using standard flushing practices. […] All animals were monitored daily, and weight, survival, and disease progression were recorded following the scoring system described in Table 4.
On Day 20, animals were redistributed into groups so that the average scGVHD score was similar across all groups. Treatment was initiated on Day 21 and continued until Day 55. All dosing was performed BID to control for stress associated with oral gavage. […] On Days 33, 36, 39, 42, and 45, all animals were photographed under isoflurane anesthesia to assess disease severity.
For data set [5], the system named is murine model of sclerodermatous chronic graft-versus-host disease (GVHD). Kind of data set: Example 4: murine model of sclerodermatous chronic GVHD, ibrutinib and rilzabrutinib. It counts as in vivo, mouse. The note with it: for animals that did not display progressive disease by Day 56 (standard GVHD scale): vehicle 9%; for lung sum and individual component histopathology scores vs vehicle: ibrutinib 12.5 and 25 mg/kg (Groups 4, 5), rilzabrutinib 20 and 40 mg/kg (Groups 6, 7), not statistically significant. An excerpt:
Animals were acclimatized for at least three days prior to study commencement.
Sclerodermatous chronic GVHD was induced in C57Bl/6 (CD45.1) mice using a single acute dose of 8.5 Gy of TBI on Day −1. […] The BM cells were isolated using standard flushing practices. […] Additionally, following TBI on Day −1 and up to Day 8, all animals were given supplemental high calorie highly palatable food in a dish on the bottom of the cage. Following transfer on Day 0, and then again as needed, all animals were given 1 mL/animal/day of supplemental fluids (warmed ringers solution) via subcutaneous injection. An additional 1 mL fluid may have been given in the pm on an as needed basis.
Ibrutinib. Ibrutinib was formulated with vehicle (0.5% MC).
Animals were treated twice daily on Days 21-55.
Animals in Groups 4 and 5 were administered ibrutinib for the first/AM dose and vehicle for the last/PM dose each day of dosing.
The modified GVHD score for scGVHD was based on 5 criteria: percentage of weight change (0-4), posture (hunching) (0-3), activity (0-3), fur texture (0-4), and skin integrity (0-4) (maximum index=18). […] Animals that appeared to be in pain were administered buprenorphine BID, as needed.
Progression-free survival was defined as an increase in GVHD Score of […] in comparison to Day 21 GVHD Score (standard or modified).
Fixed lung and skin samples were embedded in paraffin, sectioned at 5 microns, and slides stained with hematoxylin and eosin (H&E). One slide per block was sectioned and stained with hematoxylin and eosin (H&E). All slides were evaluated and scored with light microscopy by a board-certified veterinary pathologist.
Parametric data (weight change) were evaluated using one-way ANOVA with Dunnett's multiple comparisons test to compare all groups to the vehicle control group. Non-parametric data (GVHD scores) were analyzed with Kruskal-Wallis with Dunn's post-hoc test. All statistical analyses were performed using GraphPad Prism 8.4.3 Software (La Jolla, CA). Statistical significance was achieved when p<0.05.
Skin and Lung Histopathology. […] One slide per block was sectioned and stained with H&E. All slides were evaluated and scored with light microscopy by a board-certified veterinary pathologist. […] Lung range: 0-10; skin range: 0-30.
Dermal Thickness Measurements. Using H&E-stained slides, the dermis was measured (μm) in five areas across the tissue, with a mean calculated for each sample. Measurements were performed from epidermal basement membrane to the most superficial border of dermal collagen with subcuticular adipose. These measurements were only performed in areas of non-tangentially sectioned tissue, free of histologic artifacts, and with an intact epidermis.
Statistical Analysis. Data are presented as mean±standard error of the mean (SEM). Semi-quantitative sum and component histopathology scores were analyzed (GraphPad Prism) by non-parametric ANOVA (Kruskal-Wallis H test) with Dunn's multiple comparison post-hoc tests; dermal measurements were analyzed by one-way ANOVA with post-hoc Tukey tests as appropriate. Significance was set at p<0.05 for all tests.

Setting [6] is: dose groups not distinguished in the legend.

`CC(C)NC(=O)COc1cccc(-c2nc(Nc3ccc4[nH]ncc4c3)c3ccccc3n2)c1` [belumosudil, 2-{3-[4-(1H-indazol-5-ylamino)-2-quinazolinyl]phenoxy}-N-(propan-2-yl) acetamide]: the belumosudil exposure entry in data set [1] (coadministration with proton pump inhibitors) and in data set [1] (coadministration with strong CYP3A inducers) was “decreases belumosudil exposure” throughout. This molecule gave a survival in data set [2] of 80%. Also, in data set [3] (10 μM compound, whole blood, anti-CD79b alone 73.4%), the “activated B cells (CD69 positive)” value turned out to be 82.4%. Also, in data set [3] (10 μM to 0.00017 μM), the “inhibition of B-cell activation in whole blood (dose-response graph)” value is “did not inhibit”.

`C=CC(=O)N1CCC[C@@H](n2nc(-c3ccc(Oc4ccccc4)cc3)c3c(N)ncnc32)C1` [ibrutinib, 1-[(3R)-3-[4-amino-3-(4-phenoxyphenyl)-1H-pyrazolo[3,4-d]pyrimidin-1-yl]-1-piperidinyl]-2-propen-1-one, reference compound] showed a survival in data set [2] of 90%. Also, in data set [4] (ibrutinib 25 mg/kg PO AM dose, Days 21-55, vs vehicle), the GVHD scores result is listed as “numerical reduction in GVHD scores”. In data set [5] (12.5 mg/kg (Group 4)), the “body weight change (AUC Day 0-56) vs vehicle” value is “notably more weight gain”; the “body weight change, death weight carried, vs vehicle” value was “trend of increased weight gain”; the “animals that did not display progressive disease by Day 56 (standard GVHD scale)” value is given as 10%. Moreover, in data set [5] (12.5 mg/kg PO AM dose, Days 21-55 (Group 4), to Day 56), the survival result was “survived until the end of the study”. In addition, in data set [5] (25 mg/kg (Group 5)), the “modified GVHD score (AUC) vs vehicle” value was “notably lower modified GVHD scores”; the “modified GVHD score, death score carried: trend of lowered scores vs vehicle” value is given as “dampened after adjusting for survivor bias”; the “skin sum histopathology score vs vehicle” value was “lowered sum scores”; the “standard GVHD score (AUC) vs vehicle” value is recorded as “notably lower standard GVHD scores”. For the same molecule, in data set [5] (25 mg/kg (Group 5)), the “standard GVHD score, death score carried: trend of lowered scores vs vehicle” value is recorded as “dampened after adjusting for survivor bias” and the “animals that did not display progressive disease by Day 56 (standard GVHD scale)” value was determined as 40%. The “dermal fibrosis score vs vehicle” value in data set [5] (25 mg/kg (Group 5), p=0.02) is on record as “statistically lowered dermal fibrosis scores”. In addition, the survival in data set [5] (25 mg/kg PO AM dose, Days 21-55 (Group 5), vehicle 82%) is given as 90%. Further, the “skin sum histopathology score (FIG. 10A legend)” value in data set [5] (setting [6]) was “Slightly lowered sum scores”. For the same molecule, the “lung sum and individual component histopathology scores vs vehicle” value in data set [5] (listed as ibrunitib) is on record as “Small reductions; also recorded: slight reductions in sum histopathology scores”.

In the case of `CC(C)(C=C(C#N)C(=O)N1CCC[C@@H](n2nc(-c3ccc(Oc4ccccc4)cc3F)c3c(N)ncnc32)C1)N1CCN(C2COC2)CC1` [rilzabrutinib, (R)-2-[3-[4-amino-3-(2-fluoro-4-phenoxy-phenyl)pyrazolo[3,4-d]pyrimidin-1-yl]piperidine-1-carbonyl]-4-methyl-4-[4-(oxetan-3-yl)piperazin-1-yl]pent-2-enenitrile], the “standard GVHD score, death score carried, vs vehicle” value in data set [2] (Groups 4-8, rilzabrutinib 40 mg/kg BID (Group 6)) is on record as “trend of lower standard GVHD scores”. In addition, the survival result in data set [2] is “survived to the conclusion of the study”. Further, the IC50 in data set [3] (Homo sapiens, B-cell, dose-response 10 μM to 0.00017 μM, read-out: IC50 of inhibition of B-cell activation in whole blood) was 9.5 nM. Further, in data set [4] (rilzabrutinib 20 and 40 mg/kg BID PO, Days 21-55), the “disease severity (GVHD scores, total GVHD burden AUC)” value is “dose-dependent, with a greater reduction in disease severity observed at the higher 40 mg/kg dose”. Further, in data set [5] (20 mg/kg BID (Group 6)), the “body weight change (AUC Day 0-56) vs vehicle” value is “notably more weight gain”; the “body weight change, death weight carried, vs vehicle” value is recorded as “trend of increased weight gain”; the “modified GVHD score (AUC) vs vehicle” value is recorded as “notably lower modified GVHD scores”; the “modified GVHD score, death score carried: trend of lowered scores vs vehicle” value is “dampened after adjusting for survivor bias”. In data set [5] (20 mg/kg BID (Group 6)), the “standard GVHD score (AUC) vs vehicle” value was “notably lower standard GVHD scores”; the “standard GVHD score, death score carried: trend of lowered scores vs vehicle” value is recorded as “dampened after adjusting for survivor bias”; the “animals that did not display progressive disease by Day 56 (standard GVHD scale)” value was 30%. For the same molecule, in data set [5] (20 mg/kg BID (Group 6), among-group p=0.3), the “dermal thickness (H&E)” value is given as “small reduction in mean thickness”. The same molecule returned a survival in data set [5] (20 mg/kg BID PO, Days 21-55 (Group 6), vehicle 82%) of 80%. Besides, in data set [5] (40 mg/kg BID (Group 7)), the “modified GVHD score (AUC) vs vehicle” value was “notably lower modified GVHD scores”; the “modified GVHD score, death score carried: trend of lowered scores vs vehicle” value is “dampened after adjusting for survivor bias”; the “standard GVHD score (AUC) vs vehicle” value is “notably lower standard GVHD scores”; the “standard GVHD score, death score carried: trend of lowered scores vs vehicle” value is “dampened after adjusting for survivor bias”. The “animals that did not display progressive disease by Day 56 (standard GVHD scale)” value in data set [5] (40 mg/kg BID (Group 7)) is 10%. For the same molecule, the “dermal fibrosis score vs vehicle” value in data set [5] (40 mg/kg BID (Group 7), p=0.09) is “statistical trend toward lowered scores”. The same molecule had a survival in data set [5] (40 mg/kg BID PO, Days 21-55 (Group 7), vehicle 82%) of 90%. In data set [5] (setting [6]), the “dermal thickness (FIG. 11 legend)” value was “slight reduction in dermal thickness” and the “skin sum histopathology score (FIG. 10A legend)” value is “Slightly lowered sum scores”. Besides, in data set [5] (either dose, 20 and 40 mg/kg BID (Groups 6 and 7)), the “skin sum histopathology score vs vehicle” value is on record as “lowered sum scores”. In data set [5], the “lung sum and individual component histopathology scores vs vehicle” value was “Small reductions”. In data set [5] (listed as rilzabrunitib), the “lung sum and individual component histopathology scores vs vehicle” value was “slight reductions in sum histopathology scores”.

For orientation: IC50 means the concentration that gives 50% inhibition.
